Experimental data published in ChEMBL document CHEMBL1129884, “Hindered rotation congeners of mazapertine: High affinity ligands for the 5-HT1A receptor” (Bioorg Med Chem Lett, 1997).

Experiments:
D(3) dopamine receptor [1] = molecular target: T1, D(3) dopamine receptor (Homo sapiens, UniProt P35462)
[2] = molecular target: 5-hydroxytryptamine receptor 1B (Homo sapiens) (UniProt P28222); assay: Compound was measured for its binding affinity at 5-hydroxytryptamine 1B receptor at a concentration of 100 nM using [125I]CYP as radioligand
[3] = molecular target: T2, Adrenergic receptor alpha-1 (Homo sapiens, UniProt P35348+P25100+P35368); assay: Compound was measured […] for its binding affinity at Alpha-1 adrenergic receptor using [3H]prazosin as radioligand.
T2 sequence (P35348 whole entry): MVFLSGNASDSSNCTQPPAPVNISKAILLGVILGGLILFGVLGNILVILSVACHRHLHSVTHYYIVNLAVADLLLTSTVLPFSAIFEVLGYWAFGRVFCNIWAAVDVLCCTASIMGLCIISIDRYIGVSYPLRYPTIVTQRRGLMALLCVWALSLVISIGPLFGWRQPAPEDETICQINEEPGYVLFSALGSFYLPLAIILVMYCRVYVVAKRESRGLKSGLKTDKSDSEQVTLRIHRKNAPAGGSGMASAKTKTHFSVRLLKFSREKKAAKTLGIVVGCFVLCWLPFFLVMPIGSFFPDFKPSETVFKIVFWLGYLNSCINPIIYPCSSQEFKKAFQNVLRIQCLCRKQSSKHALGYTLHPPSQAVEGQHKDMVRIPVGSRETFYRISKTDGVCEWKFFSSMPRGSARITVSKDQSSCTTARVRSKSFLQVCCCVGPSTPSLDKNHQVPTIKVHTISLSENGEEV
T2 sequence (P25100 whole entry): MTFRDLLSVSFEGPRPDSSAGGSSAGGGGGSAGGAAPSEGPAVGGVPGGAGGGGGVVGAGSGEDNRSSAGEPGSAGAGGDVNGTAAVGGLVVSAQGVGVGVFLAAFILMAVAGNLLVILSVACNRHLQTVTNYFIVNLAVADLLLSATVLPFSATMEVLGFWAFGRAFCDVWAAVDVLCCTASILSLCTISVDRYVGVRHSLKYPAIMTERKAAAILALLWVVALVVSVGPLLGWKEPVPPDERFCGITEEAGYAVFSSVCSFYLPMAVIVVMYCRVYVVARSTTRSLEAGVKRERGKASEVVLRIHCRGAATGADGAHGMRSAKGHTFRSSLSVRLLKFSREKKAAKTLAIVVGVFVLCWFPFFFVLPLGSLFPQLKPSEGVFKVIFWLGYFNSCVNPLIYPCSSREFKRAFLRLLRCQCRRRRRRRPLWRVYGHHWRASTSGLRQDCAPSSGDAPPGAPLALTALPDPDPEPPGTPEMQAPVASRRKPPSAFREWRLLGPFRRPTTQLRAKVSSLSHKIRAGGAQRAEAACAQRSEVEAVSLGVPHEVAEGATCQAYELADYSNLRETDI
T2 sequence (P35368 whole entry): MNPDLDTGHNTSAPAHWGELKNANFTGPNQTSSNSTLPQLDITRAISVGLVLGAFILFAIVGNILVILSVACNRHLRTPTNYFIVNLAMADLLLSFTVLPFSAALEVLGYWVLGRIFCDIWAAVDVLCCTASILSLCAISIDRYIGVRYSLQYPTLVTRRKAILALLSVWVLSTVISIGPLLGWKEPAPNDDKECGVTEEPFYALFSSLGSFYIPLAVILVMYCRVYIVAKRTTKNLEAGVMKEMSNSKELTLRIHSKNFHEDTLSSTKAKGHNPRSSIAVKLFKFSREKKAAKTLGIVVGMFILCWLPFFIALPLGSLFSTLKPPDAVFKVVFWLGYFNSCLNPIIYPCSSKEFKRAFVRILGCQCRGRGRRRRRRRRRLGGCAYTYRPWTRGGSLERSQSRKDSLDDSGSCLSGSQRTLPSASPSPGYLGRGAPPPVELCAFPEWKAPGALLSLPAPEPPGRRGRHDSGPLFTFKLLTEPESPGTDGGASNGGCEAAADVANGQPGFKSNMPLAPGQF

[4] = molecular target: T3, 5-hydroxytryptamine receptor 1A (Homo sapiens, UniProt P08908); assay: Compound was measured […] for its binding affinity at 5-hydroxytryptamine 1A receptor using [3H]8-OH-DPAT as radioligand
T3 sequence (P08908 whole entry): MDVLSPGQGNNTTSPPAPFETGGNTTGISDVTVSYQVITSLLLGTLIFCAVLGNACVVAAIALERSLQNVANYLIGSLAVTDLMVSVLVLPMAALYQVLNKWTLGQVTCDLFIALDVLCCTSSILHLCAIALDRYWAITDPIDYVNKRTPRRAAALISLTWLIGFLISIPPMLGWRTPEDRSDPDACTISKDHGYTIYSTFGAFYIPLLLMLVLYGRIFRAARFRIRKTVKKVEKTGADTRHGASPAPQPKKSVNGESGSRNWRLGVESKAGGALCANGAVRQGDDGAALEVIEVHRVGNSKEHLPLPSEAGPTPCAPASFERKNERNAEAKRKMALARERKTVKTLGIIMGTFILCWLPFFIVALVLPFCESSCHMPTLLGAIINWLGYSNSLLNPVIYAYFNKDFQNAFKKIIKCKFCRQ

D(2) dopamine receptor = D(2) dopamine receptor (Homo sapiens, UniProt P14416)
Description: Compound was measured in vivo for its binding affinity at Dopamine receptor D2 using [3H]spiperone as radioligand.

[5] = molecular target: T4, 5-hydroxytryptamine receptor 2C (Homo sapiens) (UniProt P28335); assay: Compound was measured for its binding affinity at 5-hydroxytryptamine 1C receptor at a concentration of 100 nM using [3H]mesulergine as radioligand
T4 sequence (whole entry): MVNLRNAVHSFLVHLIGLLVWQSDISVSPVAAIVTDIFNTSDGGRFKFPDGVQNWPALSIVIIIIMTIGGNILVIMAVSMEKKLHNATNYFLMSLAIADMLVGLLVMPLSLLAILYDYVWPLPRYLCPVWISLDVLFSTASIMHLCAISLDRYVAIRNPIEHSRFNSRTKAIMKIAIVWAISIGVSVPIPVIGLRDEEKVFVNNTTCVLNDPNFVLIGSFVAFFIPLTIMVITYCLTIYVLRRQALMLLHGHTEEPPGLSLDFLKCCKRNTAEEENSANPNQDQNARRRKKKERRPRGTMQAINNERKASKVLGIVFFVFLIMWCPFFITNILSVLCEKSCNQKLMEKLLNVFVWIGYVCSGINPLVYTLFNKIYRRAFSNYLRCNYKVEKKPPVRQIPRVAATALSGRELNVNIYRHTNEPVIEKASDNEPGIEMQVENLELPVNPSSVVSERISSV

[6] = molecular target: Serotonin 3 (5-HT3) receptor (Homo sapiens) (UniProt P46098+A5X5Y0+O95264+Q70Z44+Q8WXA8); assay: Compound was measured for its binding affinity at 5-hydroxytryptamine 3 receptor at a concentration of 10 uM using [3H]BRL-43694 as radioligand; type: protein-complex assay
[7] = molecular target: Serotonin 2 (5-HT2) receptor (Homo sapiens) (UniProt P41595+P28223+P28335); assay: Compound was measured for its binding affinity at 5-hydroxytryptamine 2 receptor at a concentration of 10 uM using [3H]ketanserin as radioligand; type: protein assay
Rattus norvegicus [8] = assay: Compound was measured for its antipsychotic activity in the rat conditioned avoidance test, at a dose of 15 mg/kg administered perorally; type: functional; conditions: route oral
[9] = molecular target: D(1A) dopamine receptor (Homo sapiens) (UniProt P21728); assay: Compound was measured for its binding affinity at Dopamine receptor D1 at a concentration of 10 uM using [3H]SCH-23390 as radioligand
[10] = molecular target: 5-hydroxytryptamine receptor 1D (Homo sapiens) (UniProt P28221); assay: Compound was measured for its binding affinity at 5-hydroxytryptamine 1D receptor at a concentration of 10 uM using [3H]5-HT as radioligand
D(3) dopamine receptor [11] = molecular target: T1, D(3) dopamine receptor; assay: Compound was measured […] for its inhibition of Dopamine receptor D3 at a concentration of 100 nM
Rattus norvegicus [12] = assay: Compound was measured for its antipsychotic activity in the rat conditioned avoidance test, at a dose of 15 mg/kg compound administered perorally; type: functional; conditions: route oral
[13] = molecular target: 5-hydroxytryptamine receptor 5B (Rattus norvegicus, UniProt P35365); assay: Binding affinity against serotonin receptor
[14] = molecular target: T3, 5-hydroxytryptamine receptor 1A; assay: Binding affinity against 5-hydroxytryptamine 1A receptor
Rattus norvegicus [15] = assay: Compound was measured for its antipsychotic activity in the rat conditioned avoidance test at a dose of 15 mg/kg administered perorally; type: functional; conditions: route oral

Chain of Serotonin 2 (5-HT2) receptor (Homo sapiens) (P28223 whole entry, looked up, one chain of several): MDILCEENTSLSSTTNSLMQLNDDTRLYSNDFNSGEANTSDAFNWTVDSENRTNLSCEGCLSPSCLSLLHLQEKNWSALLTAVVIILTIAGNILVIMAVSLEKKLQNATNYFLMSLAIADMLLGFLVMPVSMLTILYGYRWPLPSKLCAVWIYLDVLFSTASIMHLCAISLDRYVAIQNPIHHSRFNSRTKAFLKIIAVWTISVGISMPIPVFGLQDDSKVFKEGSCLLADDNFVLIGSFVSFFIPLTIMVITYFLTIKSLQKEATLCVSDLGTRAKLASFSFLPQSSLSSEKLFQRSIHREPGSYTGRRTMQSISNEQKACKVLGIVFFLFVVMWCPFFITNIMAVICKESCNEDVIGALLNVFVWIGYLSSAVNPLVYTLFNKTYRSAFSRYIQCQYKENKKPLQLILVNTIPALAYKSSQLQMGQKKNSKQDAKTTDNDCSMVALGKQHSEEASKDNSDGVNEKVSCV
Chain of Serotonin 2 (5-HT2) receptor (Homo sapiens) (P41595 whole entry, looked up, one chain of several): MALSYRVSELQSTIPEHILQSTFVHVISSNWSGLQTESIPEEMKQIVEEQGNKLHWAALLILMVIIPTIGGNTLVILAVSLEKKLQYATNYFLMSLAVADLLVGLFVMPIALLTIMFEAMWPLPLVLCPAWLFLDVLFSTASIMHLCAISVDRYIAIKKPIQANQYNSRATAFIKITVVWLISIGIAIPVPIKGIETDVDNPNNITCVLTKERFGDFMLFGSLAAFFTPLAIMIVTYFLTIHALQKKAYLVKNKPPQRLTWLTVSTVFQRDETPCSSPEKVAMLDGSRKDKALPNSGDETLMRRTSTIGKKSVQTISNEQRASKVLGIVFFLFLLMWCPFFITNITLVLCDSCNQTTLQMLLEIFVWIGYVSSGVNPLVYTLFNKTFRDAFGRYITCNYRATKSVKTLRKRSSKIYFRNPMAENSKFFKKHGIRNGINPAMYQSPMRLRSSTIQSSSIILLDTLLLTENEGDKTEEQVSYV
Chain of 5-hydroxytryptamine receptor 1D (Homo sapiens) (P28221 whole entry): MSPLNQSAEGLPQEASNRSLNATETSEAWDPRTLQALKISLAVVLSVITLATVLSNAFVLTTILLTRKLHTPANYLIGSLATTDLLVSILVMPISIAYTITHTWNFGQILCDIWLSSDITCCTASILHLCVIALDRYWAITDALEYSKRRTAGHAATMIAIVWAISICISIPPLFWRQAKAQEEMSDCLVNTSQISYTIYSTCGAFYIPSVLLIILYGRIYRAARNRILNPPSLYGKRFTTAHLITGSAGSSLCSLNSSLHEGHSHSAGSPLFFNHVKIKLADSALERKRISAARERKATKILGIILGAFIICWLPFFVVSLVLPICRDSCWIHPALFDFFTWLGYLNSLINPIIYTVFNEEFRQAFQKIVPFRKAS
T1 sequence (P35462 whole entry): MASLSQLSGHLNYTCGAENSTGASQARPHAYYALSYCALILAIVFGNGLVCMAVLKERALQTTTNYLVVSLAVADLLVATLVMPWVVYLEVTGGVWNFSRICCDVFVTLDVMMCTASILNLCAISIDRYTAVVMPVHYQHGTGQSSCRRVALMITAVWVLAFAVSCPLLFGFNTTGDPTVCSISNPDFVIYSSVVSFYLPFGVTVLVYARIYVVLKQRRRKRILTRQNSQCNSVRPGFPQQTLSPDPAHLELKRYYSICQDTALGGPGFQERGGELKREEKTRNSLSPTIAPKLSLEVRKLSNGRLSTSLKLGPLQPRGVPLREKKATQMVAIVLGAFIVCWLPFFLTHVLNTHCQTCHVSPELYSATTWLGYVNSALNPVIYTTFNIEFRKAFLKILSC
Chain of 5-hydroxytryptamine receptor 1B (Homo sapiens) (P28222 whole entry): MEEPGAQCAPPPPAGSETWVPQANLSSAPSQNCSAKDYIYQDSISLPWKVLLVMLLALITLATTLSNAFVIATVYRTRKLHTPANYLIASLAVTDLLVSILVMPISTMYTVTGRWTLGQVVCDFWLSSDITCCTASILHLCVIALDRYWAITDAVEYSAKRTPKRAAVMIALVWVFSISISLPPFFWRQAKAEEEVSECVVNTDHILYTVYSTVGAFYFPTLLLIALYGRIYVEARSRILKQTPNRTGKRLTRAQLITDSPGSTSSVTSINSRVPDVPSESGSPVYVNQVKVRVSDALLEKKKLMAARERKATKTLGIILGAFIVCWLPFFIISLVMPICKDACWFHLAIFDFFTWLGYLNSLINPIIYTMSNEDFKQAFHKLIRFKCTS
Chain of D(1A) dopamine receptor (Homo sapiens) (P21728 whole entry): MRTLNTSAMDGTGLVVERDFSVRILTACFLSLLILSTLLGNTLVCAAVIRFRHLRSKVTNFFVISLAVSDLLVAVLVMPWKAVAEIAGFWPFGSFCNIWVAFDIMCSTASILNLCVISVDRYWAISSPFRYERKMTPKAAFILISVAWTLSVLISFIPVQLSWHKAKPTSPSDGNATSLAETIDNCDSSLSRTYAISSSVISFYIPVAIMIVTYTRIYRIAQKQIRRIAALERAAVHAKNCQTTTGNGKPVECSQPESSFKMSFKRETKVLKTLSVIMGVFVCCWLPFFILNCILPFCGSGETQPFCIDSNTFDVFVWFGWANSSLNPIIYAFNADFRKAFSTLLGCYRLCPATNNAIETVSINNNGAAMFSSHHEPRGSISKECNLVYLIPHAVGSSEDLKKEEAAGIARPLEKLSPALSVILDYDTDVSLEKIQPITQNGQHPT
Chain of D(2) dopamine receptor (P14416 whole entry): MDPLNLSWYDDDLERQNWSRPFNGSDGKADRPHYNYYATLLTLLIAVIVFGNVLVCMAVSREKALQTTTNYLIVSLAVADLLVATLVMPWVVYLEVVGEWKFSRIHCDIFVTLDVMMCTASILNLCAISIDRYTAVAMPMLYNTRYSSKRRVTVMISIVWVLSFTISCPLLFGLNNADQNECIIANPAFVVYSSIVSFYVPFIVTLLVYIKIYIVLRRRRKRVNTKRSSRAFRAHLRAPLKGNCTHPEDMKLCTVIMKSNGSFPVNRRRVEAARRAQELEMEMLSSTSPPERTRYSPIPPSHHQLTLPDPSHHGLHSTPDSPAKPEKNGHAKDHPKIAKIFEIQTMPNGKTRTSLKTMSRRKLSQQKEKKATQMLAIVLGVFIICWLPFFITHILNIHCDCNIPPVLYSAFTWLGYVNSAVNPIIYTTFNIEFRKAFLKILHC
Chain of 5-hydroxytryptamine receptor 5B (P35365 whole entry): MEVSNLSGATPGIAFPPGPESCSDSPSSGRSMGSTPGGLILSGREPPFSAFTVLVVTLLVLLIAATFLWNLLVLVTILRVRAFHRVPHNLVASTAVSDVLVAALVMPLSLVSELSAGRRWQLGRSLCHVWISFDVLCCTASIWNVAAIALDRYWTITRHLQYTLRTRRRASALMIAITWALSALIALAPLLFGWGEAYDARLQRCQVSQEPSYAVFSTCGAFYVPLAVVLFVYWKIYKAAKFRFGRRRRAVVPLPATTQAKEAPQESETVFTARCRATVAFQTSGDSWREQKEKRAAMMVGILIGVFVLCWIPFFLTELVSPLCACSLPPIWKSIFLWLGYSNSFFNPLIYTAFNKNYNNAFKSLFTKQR

SMILES | inhibition [2] [%] | Ki [3] [nM] | Ki [4] [nM] | Ki (D(2) dopamine receptor) [nM] | inhibition [5] [%] | inhibition [6] [%] | inhibition [7] [%] | inhibition [9] [%] | inhibition [10] [%] | inhibition (D(3) dopamine receptor [11]) [%] | Ki [14] [nM] | also measured
CC(C)Oc1ccccc1N1CCN(Cc2cccc(C(=O)N3CCCCC3)c2)CC1 [MAZAPERTINE] |  |  |  |  |  |  |  |  |  |  |  | Ki (D(3) dopamine receptor [1]): 1.8 nM
O=C(c1cccc(CN2CCN3c4ccccc4OCC3C2)c1)N1CCc2ccccc21 (stereo not drawn) | 8.1 | > 1000 | 6.5 | > 1000 | -2.8 | 12.5 | 7.5 | 42.4 | 58.9 | 54 |  | inhibition in vivo at 15 mg/kg (Rattus norvegicus [8]): -20%
CC(C)Oc1ccccc1N1CCN(Cc2cccc(C(=O)N3CCc4ccccc43)c2)CC1 |  | 1.7 | 3.4 |  |  |  |  |  |  |  |  | inhibition in vivo at 15 mg/kg (Rattus norvegicus [12]): -96%
FC(F)(F)c1ccc2c(c1)N1CCNCC1CC2 (stereo not drawn) |  |  |  |  |  |  |  |  |  |  |  | Ki [13]: 67 nM
O=C(c1cccc(CN2CCc3c([nH]c4ccccc34)C2)c1)N1CCc2ccccc21 | 8.8 | 2.9 | 9.2 | > 1000 | 8.7 | 22.6 | 29.9 | 40.8 | 86.1 | 56 |  | inhibition in vivo at 15 mg/kg (Rattus norvegicus [8]): -37%
CCCCCCN1CCc2c([nH]c3ccccc23)C1 |  |  |  |  |  |  |  |  |  |  | 79 | 
O=C1c2ccccc2C(=O)N1CCCCN1CCn2c(cc3ccccc32)C1 |  |  |  |  |  |  |  |  |  |  | 74 | 
CCCN1CCC[C@@H]2c3cc(O)ccc3CC[C@H]21 |  |  |  |  |  |  |  |  |  |  | 3.87 | 
O=C(c1cccc(CN2CCc3c([nH]c4ccccc34)C2)c1)N1CCCCC1 | 1 | 36 | 13 | 374 | 5.5 | 13.6 | 18 | 23.7 | 74.7 | 27 |  | inhibition in vivo at 15 mg/kg (Rattus norvegicus [8]): -74%
COc1cccc2c1C1CCN(CCCN3C(=O)c4ccccc4S3(=O)=O)C[C@H]1C2 (stereo partly drawn) |  |  |  |  |  |  |  |  |  |  | 0.89 | 
O=C(c1cccc(CN2CCN3c4ccccc4OCC3C2)c1)N1CCCCC1 (stereo not drawn) | 3.4 | 200 | 12 | > 1000 | 5.6 | 5.1 | 7.5 | 14.7 | 63.8 | 64 |  | inhibition in vivo at 15 mg/kg (Rattus norvegicus [15]): -49%
